The source of these data is patent US6977270B2, “Tocotrienolquinone cyclization product with an anti-hypercholesterol effect” (BASF Aktiengesellschaft, priority 2000, dated 2005).

The test system of the assay is Cholesterol Synthesis in HepG2 Cells. Kind of assay: Determination of cholesterol synthesis in HepG2 cells (14C-acetate incorporation into the non-saponifiable lipid/sterol fraction). Type of assay: cell-based. Particulars: mean of three. As for the experimental part:
Determination of Cholesterol Synthesis in HepG2 Cells (cf. Fahrner, J. et al., Eur. J. Biochem. 213: 1067-1073 (1993); Gebhardt, R., Lipids 28: 613-619 (1993); Pill, J. et al., Z. Anal. Chem. 332: 512-513 (1985)
To detect an effect on cholesterol biosynthesis by test substances, HepG2 cell cultures were used. These cells were cultured up to confluence in 35 mm 6-well cell culture incubation dishes in DMEM medium (Gibco, Eggenstein, Germany) with 2 mM gentamin, 10% fetal calf serum, 40 U/ml of streptomycin and 50 U/ml of penicillin. Frozen cells were cultured and passaged for one week before use. The confluent cells were then incubated in serum-free Williams Medium E for 4 hours at 37° C. with the test substances. ^14C-Acetate (18.5 kBq/ml; 0.5 μCi/ml) was then added to the solutions. The test substances were diluted in DMSO and used at the concentrations specified. […]
Incorporation of ^14C-acetate into the non-saponifiable lipid fraction (sterol fraction) was determined by the following method: 1.4 ml of homogenates were incubated with 2.8 ml of 0.5 M KOH in EtOH with shaking for 1 hour at 70° C. […] The ^14C activity in the samples was determined, after addition of 10 ml of scintillation solution (Ultima Gold®, Packard, Merident, Conn.) in a scintillation counter. The measured values shown are to be understood as means of three independent culture dishes per test solution. […]

As for `CC(C)=CCC/C(C)=C/CC/C(C)=C/CC[C@]1(C)CCc2cc(O)c(C)c(C)c2O1` [R-γ-Tocotrienol], the “inhibition of 14C-acetate incorporation” value (concentration 5×10^−6 M, relative to DMSO control (100%)) is listed as “approximately 20%”. Also, for the setting “concentrations ≧5×10^−5 M, relative to DMSO control”, the “maximum significant inhibition of 14C-acetate incorporation” value is “approximately 50%”.
